From patent US20220280661A1, “GLUCOCORTICOID RECEPTOR RADIOLIGANDS AND METHODS FOR THEIR PREPARATION AND USE” (The Regents of the University of California, priority 2019, published 2022)

Target: T1, GR (Mus musculus, UniProt P06537)
T1 construct: from tissue; host or cells: tissues of C57BL6/J mice (intact or adrenalectomized), in vivo
T1 sequence (P06537 1-792): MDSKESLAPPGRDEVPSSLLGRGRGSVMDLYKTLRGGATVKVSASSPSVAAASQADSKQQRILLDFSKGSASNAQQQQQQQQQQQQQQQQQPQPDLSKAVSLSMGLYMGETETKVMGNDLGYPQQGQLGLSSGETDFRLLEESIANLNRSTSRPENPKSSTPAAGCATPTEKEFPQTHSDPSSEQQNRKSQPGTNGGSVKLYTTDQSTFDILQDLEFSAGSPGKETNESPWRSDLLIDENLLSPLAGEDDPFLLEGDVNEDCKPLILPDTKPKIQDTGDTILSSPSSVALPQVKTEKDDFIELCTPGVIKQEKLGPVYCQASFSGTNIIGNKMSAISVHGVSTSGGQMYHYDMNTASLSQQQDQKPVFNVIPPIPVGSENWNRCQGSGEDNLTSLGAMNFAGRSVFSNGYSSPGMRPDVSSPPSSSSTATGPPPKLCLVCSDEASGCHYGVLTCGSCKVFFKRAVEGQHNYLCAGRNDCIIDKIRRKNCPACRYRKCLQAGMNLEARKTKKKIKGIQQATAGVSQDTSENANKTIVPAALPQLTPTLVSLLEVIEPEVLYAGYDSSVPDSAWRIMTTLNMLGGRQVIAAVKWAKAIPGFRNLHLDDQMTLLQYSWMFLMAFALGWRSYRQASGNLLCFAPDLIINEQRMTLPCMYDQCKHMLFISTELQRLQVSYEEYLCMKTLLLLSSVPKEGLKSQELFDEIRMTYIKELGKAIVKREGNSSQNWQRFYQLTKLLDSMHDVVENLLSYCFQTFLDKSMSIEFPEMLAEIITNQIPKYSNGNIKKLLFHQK
Experiment: [18F]-YJH08 biodistribution, dexamethasone treatment study
Assay type: in vivo
Conditions: 20 min after injection
Description: All animal experiments were conducted under the approval from Institutional Animal Care and Use Committee (IACUC) at UCSF. Male nu nu or C57BL6/J mice (4-6 weeks) purchased from Charles River. All the mice were well-housed in the USCF with free access to food and water. […] The mice were treated once daily for three days. At day 3, the mice received the radiotracer after the final gavage. Adrenalectomized mice were purchased from Charles River, and provided drinking water supplemented with NaCl (aq) per instructions.
For a broader survey of radiotracer biodistribution post mortem, mice were euthanized after radiotracer injection with CO2(g) asphyxiation and dissected at dedicated time points post injection. The blood and tissues were removed, washed, dried and weighed. The activity of each tissue was measured with a gamma counter. All data was decay corrected. PRISM software was used to express a percentage (% ID/g) of the injected dose per gram of tissue. […] The data are represented as mean standard deviation of the % ID/g. […]
The data are presented as a mean±standard deviation of the % ID/g. […] The P value indicates the result of an unpaired, two-tailed Student's t test.

[1] = mice given dexamethasone 100 mg/kg oral gavage once daily for three days
[2] = mice given vehicle by oral gavage once daily for three days

COc1cccc2c1-c1ccc3c(c1C(Cc1ccc([18F])cc1)O2)C(C)=CC(C)(C)N3 (racemic) [[18F]-YJH08, [^18F]-5-(4-fluorobenzyl)-10-methoxy-2,2,4-trimethyl-2,5-dihydro-1H-chromeno[3,4-f]quinoline]
radiotracer uptake, Adrenal Gland [1]: 10.40 ± 0.7 % ID/g
radiotracer uptake, Blood [1]: 2.95 ± 0.2 % ID/g
radiotracer uptake, Bone [1]: 1.25 ± 0.2 % ID/g
radiotracer uptake, Brain [1]: 1.31 ± 0.07 % ID/g
radiotracer uptake, Heart [1]: 7.57 ± 0.9 % ID/g
radiotracer uptake, Kidney [1]: 3.75 ± 0.5 % ID/g
radiotracer uptake, Large intestine [1]: 1.77 ± 0.5 % ID/g
radiotracer uptake, Liver [1]: 11.43 ± 2.1 % ID/g
radiotracer uptake, Lung [1]: 3.92 ± 0.3 % ID/g
radiotracer uptake, Muscle [1]: 1.71 ± 0.1 % ID/g
radiotracer uptake, Pancreas [1]: 3.33 ± 0.1 % ID/g
radiotracer uptake, Small intestine [1]: 34.43 ± 7.2 % ID/g
radiotracer uptake, Spleen [1]: 4.23 ± 0.3 % ID/g
radiotracer uptake, Stomach [1]: 0.48 ± 0.4 % ID/g
radiotracer uptake, Supraspinal BAT [1]: 4.69 ± 0.7 % ID/g
radiotracer uptake, Adrenal Gland [2]: 17.29 ± 6.7 % ID/g
radiotracer uptake, Blood [2]: 3.98 ± 0.08 % ID/g
radiotracer uptake, Bone [2]: 2.17 ± 0.2 % ID/g
radiotracer uptake, Brain [2]: 2.05 ± 0.03 % ID/g
radiotracer uptake, Heart [2]: 10.66 ± 0.4 % ID/g
radiotracer uptake, Kidney [2]: 8.49 ± 1.3 % ID/g
radiotracer uptake, Large intestine [2]: 1.57 ± 0.4 % ID/g
radiotracer uptake, Liver [2]: 18.46 ± 2.9 % ID/g
radiotracer uptake, Lung [2]: 6.26 ± 0.4 % ID/g
radiotracer uptake, Muscle [2]: 2.46 ± 0.2 % ID/g
radiotracer uptake, Pancreas [2]: 6.22 ± 1.6 % ID/g
radiotracer uptake, Small intestine [2]: 19.12 ± 5.7 % ID/g
radiotracer uptake, Spleen [2]: 3.79 ± 0.4 % ID/g
radiotracer uptake, Stomach [2]: 1.74 ± 0.8 % ID/g
radiotracer uptake, Supraspinal BAT [2]: 10.52 ± 2.9 % ID/g
